Experimental data reported in patent publication US20250195521A1 (Revolution Medicines, Inc., priority 2020, published 2025).
Where two headings read alike, the source gives them in different places.

How the values were obtained:
[1] = test system: Capan-1 cells (K-Ras G12V); assay: CellTiter-Glo cell viability, Capan-1; assay type: cell-based, human; conditions: Homo sapiens, CAPAN-1, 120 h, K-Ras G12V, 5-day treatment; read-out: Capan-1 Cell Viability IC50
In short: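 Luminescence read on day 5 after ~30 min room-temperature equilibration; compounds added directly to plated cells. Values = (sample signal/avg DMSO)*100, four-parameter logistic fit.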

[2] = test system: K-Ras G12C (NCI-H358 cells); assay: Potency assay: pERK in NCI-H358 cells; assay type: cell-based, human; conditions: Homo sapiens; NCI-H358 cells, 4 hours; read-out: pERK EC50 (H358 KRAS G12C)
In short: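 Cells plated the day before were exposed for 4 h at 37° C, 5% CO2 to a 10-point, 3-fold DMSO dilution series (10 mM top stock), in duplicate. Phospho-ERK was read by AlphaLISA SureFire Ultra or by In-Cell Western with DRAQ5 DNA stain, and IC50 came from a 4-parameter sigmoidal fit.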

NCI-H358 (K-Ras G12C) = assay: CellTiter-Glo cell viability assay, NCI-H358; assay type: cell-based, human; conditions: Homo sapiens, NCI-H358, 120 h, 5-day treatment; read-out: H358 Cell Viability assay data (K-Ras G12C, IC50)
In short: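 Luminescent CellTiter-Glo read-out on day 5 after compound exposure; signal expressed as percent of mean DMSO control; four-parameter logistic fit gives the value.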

[3] = molecular target: K-Ras G12C(GMP-PNP) binding to BRAF RBD (Homo sapiens (Human), UniProt P01116+P62937, G12C); assay: Disruption of BRAF RBD interaction with K-Ras (FRET / MOA assay), K-Ras G12C; assay type: biochemical
Sequence of K-Ras G12C(GMP-PNP) binding to BRAF RBD (P01116 other isoform, or with tags, fused parts or gaps G12C): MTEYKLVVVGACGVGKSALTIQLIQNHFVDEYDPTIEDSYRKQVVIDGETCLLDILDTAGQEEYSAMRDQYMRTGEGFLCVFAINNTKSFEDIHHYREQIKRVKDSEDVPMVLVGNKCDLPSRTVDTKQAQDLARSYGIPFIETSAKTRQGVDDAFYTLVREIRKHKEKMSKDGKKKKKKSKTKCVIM
Sequence of K-Ras G12C(GMP-PNP) binding to BRAF RBD (P62937 whole entry): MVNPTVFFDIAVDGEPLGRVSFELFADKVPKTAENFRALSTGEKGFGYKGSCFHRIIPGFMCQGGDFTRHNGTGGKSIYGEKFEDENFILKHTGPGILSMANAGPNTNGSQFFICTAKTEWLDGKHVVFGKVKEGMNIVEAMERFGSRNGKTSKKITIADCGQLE
In short: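 Cpd 10-pt 3-fold dilution, top 30 μM final; Ras/CypA/BRAF RBD mix 3 h, 25° C. Add anti-His Eu-W1024 10 nM + anti-GST APC 50 nM final, 1.5 h. Readout TR-FRET ratio decrease vs DMSO → IC50.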

SMILES	EC50 [2] [µM]	IC50 (NCI-H358 (K-Ras G12C)) [nM]	IC50 ([3]; read-out: KRAS G12C FRET IC50) [nM]	IC50 ([3]; KRAS G12C FRET IC50) [nM]	IC50 [1] [nM]
CCn1c(-c2cccnc2[C@H](C)OC)c2c3cc(ccc31)-c1cc(cc3nc[nH]c13)C[C@H](NC(=O)[C@H](C(C)C)N(C)C(C)=O)C(=O)N1CCC[C@H](N1)C(=O)OCC(C)(C)C2 [Compound A153]	< 5	100 to 1000	10 to 100		> 10000
CCn1c(-c2cccnc2[C@H](C)OC)c2c3cc(ccc31)-c1cc(cc(S(C)(=O)=O)c1)C[C@H](NC(=O)[C@H](C(C)C)N(C)C(C)=O)C(=O)N1CCC[C@H](N1)C(=O)OCC(C)(C)C2 [Compound A154]	< 5	10 to 100	10 to 100		> 10000
CCn1c(-c2cccnc2[C@H](C)OC)c2c3cc(ccc31)-c1cc(O)cc(c1)C[C@H](NC(=O)[C@H](C(C)C)N(C)C(=O)C1CNCCNC1)C(=O)N1CCC[C@H](N1)C(=O)OCC(C)(C)C2 [Compound A432]	< 5	10 to 100	10 to 100		
CCn1c(-c2cc(N3CCN(C)CC3)cnc2[C@H](C)OC)c2c3cc(ccc31)-c1csc(n1)C[C@H](NC(=O)[C@H](C(C)C)N(C)C(=O)[C@H]1CCCS1(=O)=O)C(=O)N1CCC[C@H](N1)C(=O)OCC(C)(C)C2 [Compound A439]	< 5				10 to 100
CCn1c(-c2cc(N3CCN(C)CC3)cnc2[C@H](C)OC)c2c3cc(ccc31)-c1csc(n1)C[C@H](NC(=O)[C@H](C(C)C)N(C)C(=O)N1CC(OC)C1)C(=O)N1CCC[C@H](N1)C(=O)OCC(C)(C)C2 [Compound A466]	< 5	< 10		10 to 100	
CCn1c(-c2cccnc2[C@H](C)OC)c2c3cc(ccc31)-c1csc(n1)C[C@H](NC(=O)[C@H](C(C)C)N(C)C(=O)N1CCC[C@@H]1CN(C)C)C(=O)N1CCC[C@H](N1)C(=O)OCC(C)(C)C2 [Compound A518]	< 5				10 to 100
CCn1c(-c2cccnc2[C@H](C)OC)c2c3cc(ccc31)-c1csc(n1)C[C@H](NC(=O)[C@H](C(C)C)N(CCc1ccncc1)C1CC1)C(=O)N1CCC[C@H](N1)C(=O)OCC(C)(C)C2 [Compound A556]	< 5				100 to 1000
CCn1c(-c2cccnc2[C@H](C)OC)c2c3cc(ccc31)-c1csc(n1)C[C@H](NC(=O)[C@H](C(C)C)N(C)C(=O)N1CC[C@@H](F)[C@H](N)C1)C(=O)N1CCC[C@H](N1)C(=O)OCC(C)(C)C2 [Compound A559]	< 5				100 to 1000
CCn1c(-c2cccnc2[C@H](C)OC)c2c3cc(ccc31)-c1csc(n1)C[C@H](NC(=O)[C@H](C(C)C)N(C)C(=O)[C@@H]1OCC[C@@H]1c1ccccc1)C(=O)N1CCC[C@H](N1)C(=O)OCC(C)(C)C2 [Compound A585]	< 5				100 to 1000
CCn1c(-c2cccnc2[C@H](C)OC)c2c3cc(ccc31)-c1cccc(c1)C[C@H](NC(=O)[C@H](C(C)C)N(C)C(=O)[C@@H]1OCC[C@@H]1c1ccccc1)C(=O)N1CCC[C@H](N1)C(=O)OCC(C)(C)C2 [Compound A586]	< 5				100 to 1000
CCn1c(-c2cccnc2[C@H](C)OC)c2c3cc(ccc31)-c1csc(n1)C[C@H](NC(=O)[C@H](C(C)C)N(C)C(=O)N1CCC[C@H]1c1ccccc1)C(=O)N1CCC[C@H](N1)C(=O)OCC(C)(C)C2 [Compound A599]	< 5				1000 to 10000
CCn1c(-c2cccnc2[C@H](C)OC)c2c3cc(ccc31)-c1cc(O)cc(c1)C[C@H](NC(=O)[C@H](C(C)C)N(C)C(=O)[C@]1(F)CCN(C(=O)OC)C1)C(=O)N1CCC[C@H](N1)C(=O)OCC(C)(C)C2 [Compound A616]	< 5				100 to 1000

Further lines, with some results ahead:

EC50 [2] [µM]	IC50 (NCI-H358 (K-Ras G12C)) [nM]	IC50 ([3]; read-out: KRAS G12C FRET IC50) [nM]	IC50 ([3]; KRAS G12C FRET IC50) [nM]	SMILES	IC50 [1] [nM]
< 5				CCn1c(-c2cccnc2[C@H](C)OC)c2c3cc(ccc31)-c1csc(n1)C[C@H](NC(=O)[C@H](C(C)C)N1C[C@@H](c3ccccc3)CC1=O)C(=O)N1CCC[C@H](N1)C(=O)OCC(C)(C)C2 (single isomer, unassigned) [Compound A544]	100 to 1000
< 5	10 to 100			CCn1c(-c2cccnc2[C@H](C)OC)c2c3cc(ccc31)-c1cc(O)cc(c1)C[C@H](NC(=O)[C@H](C(C)C)N(C)C(=O)[C@H]1CCN(C(C)=O)C1)C(=O)N1CCC[C@H](N1)C(=O)OCC(C)(C)C2 [Compound A5]	100 to 1000
< 5				CCn1c(-c2cccnc2[C@H](C)OC)c2c3cc(ccc31)-c1cccc(c1)C[C@H](NC(=O)[C@H](C(C)C)N(C)C(C)=O)C(=O)N1CCC[C@H](N1)C(=O)OCC(C)(C)C2 [Compound A61]	1000 to 10000
< 5	10 to 100			CCn1c(-c2cccnc2[C@H](C)OC)c2c3cc(ccc31)-c1csc(n1)C[C@H](NC(=O)[C@H](C(C)C)N(C)C(=O)[C@H]1CCN(C(=O)CN(C)C)C1)C(=O)N1CCC[C@H](N1)C(=O)OCC(C)(C)C2 [Compound A97]	1000 to 10000
< 5		100 to 1000		CCn1c(-c2cccnc2[C@H](C)OC)c2c3cc(ccc31)-c1cccc(c1)C[C@H](NC(=O)[C@H](C(C)C)N(C)C(=O)[C@H]1CCNC1)C(=O)N1CCC[C@H](N1)C(=O)OCC(C)(C)C2 [Compound A119]	> 10000
< 5	100 to 1000	10 to 100		CCn1c(-c2cccnc2[C@H](C)OC)c2c3cc(ccc31)-c1cc(O)cc(c1)C[C@H](NC(=O)C(=C(C)C)N(C)C(C)=O)C(=O)N1CCC[C@H](N1)C(=O)OCC(C)(C)C2 [Compound A142]	> 10000
< 5	< 10	< 10		CCn1c(-c2cccnc2[C@H](C)OC)c2c3cc(ccc31)-c1cc(O)cc(c1)C[C@H](NC(=O)[C@H](C(C)C)N(C)C(=O)[C@H]1CCN(C3CC3)C1)C(=O)N1CCC[C@H](N1)C(=O)OCC(C)(C)C2 [Compound A175]	1000 to 10000
< 5				CCn1c(-c2cccnc2[C@H](C)OC)c2c3cc(ccc31)-c1cc(O)cc(c1)C[C@H](NC(=O)[C@@H](C(C)C)N(C)C(C)=O)C(=O)N1CCC[C@H](N1)C(=O)OCC(C)(C)C2 [Compound A256]	
< 5		< 10		CCn1c(-c2cccnc2[C@H](C)OC)c2c3cc(ccc31)-c1csc(n1)C[C@H](NC(=O)[C@H](C(C)C)N(C)C(=O)N1C[C@H](C)N(C)C[C@H]1C)C(=O)N1CCC[C@H](N1)C(=O)OCC(C)(C)C2 [Compound A300]	1000 to 10000
< 5				CCn1c(-c2cccnc2[C@H](C)OC)c2c3cc(ccc31)-c1csc(n1)C[C@H](NC(=O)C1(F)CCC1)C(=O)N1CCC[C@H](N1)C(=O)OCC(C)(C)C2 [Compound A361]	100 to 1000
< 5				CCn1c(-c2cccnc2[C@H](C)OC)c2c3cc(ccc31)-c1csc(n1)C[C@H](NC(=O)C1(F)CC1)C(=O)N1CCC[C@H](N1)C(=O)OCC(C)(C)C2 [Compound A362]	100 to 1000
< 5		10 to 100		CCn1c(-c2cccnc2[C@H](C)OC)c2c3cc(ccc31)-c1cc(O)cc(c1)C[C@H](NC(=O)[C@H](C(C)C)N(C)C(=O)[C@H]1CCN(C(=O)[C@@H](C)N(C)C)C1)C(=O)N1CCC[C@H](N1)C(=O)OCC(C)(C)C2 [Compound A386]	100 to 1000
< 5	< 10	< 10		CCn1c(-c2cccnc2[C@H](C)OC)c2c3cc(ccc31)-c1cc(O)cc(c1)C[C@H](NC(=O)[C@H](C(C)C)N(C)C(=O)[C@H]1OCC[C@H]1c1ccccc1)C(=O)N1CCC[C@H](N1)C(=O)OCC(C)(C)C2 [Compound A425]	
